Laboratory results reported in US20240358668A1, “METHODS AND CO[…] AM[…] CARD[…] USING (R)-2-AMINO-3-PH[…]” (AXSOME THERAPEUTICS, INC., priority 2021, published 2024).
Marks after values point to notes of the source that are not given here.

Test system: adults with EDS associated with OSA
Test: 12-week phase 3 trial in OSA: vital signs, antihypertensive medication use, AEs of hypertension/increased BP
Assay type: in vivo, human
Method: An exploratory analysis of data from one 12-week randomized, controlled trial (Schweitzer P K, et al. Am J Respir Crit Care Med. 2019; 199(11):1421-31) and 1 long-term open-label extension (OLE) trial in adults with EDS (Epworth Sleepiness Scale score ≥10) associated with OSA (Malhotra A, et al. Sleep. 2020; 43(2):zsz220) was carried out. Participants with current/prior use of primary OSA therapy (positive airway pressure [PAP], oral pressure therapy, oral appliance, or upper airway stimulation) were eligible, regardless of the level of adherence to primary OSA therapy; participants who had not attempted to use primary OSA therapy were excluded. Adherence to primary OSA therapy was defined as PAP use ≥4 hours/night on ≥70% of nights/week, historical report (with investigator concurrence) of oral appliance use on ≥70% of nights, or effective surgical intervention. Nonadherence to primary OSA therapy was defined as device use at a level lower than specific above, no device use at all, or surgical intervention deemed no longer effective. Participants received placebo or solriamfetol 37.5 (12-week trial only), 75, 150, or 300 mg/day for 12 weeks (12-week trial) or ≤40 weeks (OLE trial). Vital signs, antihypertensive medication use, and adverse events (AEs) were monitored throughout the studies. Baseline demographics, CV comorbidities, and concomitant medications, the percentage of participants who initiated antihypertensive medication use during treatment, and the incidence of and discontinuations due to AEs of hypertension/increased BP were summarized for the safety population (participants who received ≥1 dose of study medication).

## NC(=O)OC[C@H](N)Cc1ccccc1 [Solriamfetol, (R)-2-amino-3-phenylpropyl carbamate]
12-week study
  total participants with AEs of hypertension/increased BP: 10 participants
12-week study, 37.5 mg
  AE of HTN/increased BP: 0 n (%)
  Discontinuation due to AE of HTN/increased BP: 0 n (%)
  Initiated anti-HTN: 1 (1.7) n (%)
12-week study, 75 mg
  AE of HTN/increased BP: 0 n (%)
  Discontinuation due to AE of HTN/increased BP: 0 n (%)
  Initiated anti-HTN: 0 n (%)
12-week study, 150 mg
  AE of HTN/increased BP, (%): (4.3) %
  Discontinuation due to AE of HTN/increased BP, (%): (0.9)^b %
  Initiated anti-HTN: 1 (0.9) n (%)
12-week study, 300 mg
  AE of HTN/increased BP, (%): (4.2) %
  Discontinuation due to AE of HTN/increased BP: 0 n (%)
  Initiated anti-HTN: 2 (1.7) n (%)
12-week trial
  serious CV AEs: no serious CV AEs
